Data from patent US9493446B2, “Orexin receptor antagonists which are [ortho bi-(hetero-)aryl]-[2-(meta bi-(hetero-)aryl)-pyrrolidin-1-yl]-methanone derivatives” (Actelion Pharmaceuticals Ltd, priority 2012, dated 2016).

Columns and labels:
orexin-1 = orexin-1 (Homo sapiens (Human), UniProt O43613); assay: Intracellular calcium measurement (FLIPR), CHO cells expressing human orexin-1 receptor, 3 nM orexin-A; format: cell-based; settings: CHO cells expressing human orexin-1 receptor, FLIPR, 3 nM orexin-A; geometric mean if determined several times; read-out: IC50 OX1
orexin-1, sequence (O43613 whole entry): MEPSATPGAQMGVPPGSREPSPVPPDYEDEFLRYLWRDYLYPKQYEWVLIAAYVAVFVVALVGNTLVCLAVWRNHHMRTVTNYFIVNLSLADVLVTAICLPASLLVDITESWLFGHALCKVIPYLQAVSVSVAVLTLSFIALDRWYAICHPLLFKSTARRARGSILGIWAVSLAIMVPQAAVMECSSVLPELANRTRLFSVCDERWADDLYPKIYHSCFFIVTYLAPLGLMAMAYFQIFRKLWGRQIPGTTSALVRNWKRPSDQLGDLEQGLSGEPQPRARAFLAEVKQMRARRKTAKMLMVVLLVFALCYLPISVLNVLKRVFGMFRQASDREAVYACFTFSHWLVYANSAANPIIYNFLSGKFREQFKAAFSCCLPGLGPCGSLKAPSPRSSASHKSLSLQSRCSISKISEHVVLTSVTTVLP
Summary of the method: (§1)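 CHO cells stably expressing each receptor were loaded with 3 μM fluo-4 AM plus 5 mM probenecid for 50 min at 37 °C, then equilibrated 30 min at rt.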

human orexin-2 receptor = human orexin-2 receptor (Homo sapiens (Human), UniProt O43614); assay: Intracellular calcium measurement (FLIPR), CHO cells expressing human orexin-2 receptor, 3 nM orexin-A; format: cell-based; settings: CHO cells expressing human orexin-2 receptor, FLIPR, 3 nM orexin-A; geometric mean if determined several times; read-out: IC50 OX2
human orexin-2 receptor, sequence (O43614 whole entry): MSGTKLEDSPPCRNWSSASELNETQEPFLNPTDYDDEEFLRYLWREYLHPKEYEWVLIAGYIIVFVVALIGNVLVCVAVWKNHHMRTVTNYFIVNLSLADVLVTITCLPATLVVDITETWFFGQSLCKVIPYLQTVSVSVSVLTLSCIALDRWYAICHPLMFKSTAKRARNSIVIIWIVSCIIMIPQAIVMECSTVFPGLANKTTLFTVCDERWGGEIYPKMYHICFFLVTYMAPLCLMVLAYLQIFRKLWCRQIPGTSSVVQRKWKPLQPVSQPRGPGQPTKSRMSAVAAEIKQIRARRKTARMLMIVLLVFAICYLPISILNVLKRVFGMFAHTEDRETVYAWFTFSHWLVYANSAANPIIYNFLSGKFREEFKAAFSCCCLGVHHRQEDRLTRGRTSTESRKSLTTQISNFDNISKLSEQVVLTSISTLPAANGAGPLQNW
Summary of the method: as §1

## Cc1ccc(-n2nccn2)c(C(=O)N2CCC[C@H]2c2nc(-c3ccccc3O)no2)c1 [compound 31, {(S)-2-[3-(2-Hydroxy-phenyl)-[1,2,4]oxadiazol-5-yl]-pyrrolidin-1-yl}-(5-methyl-2-[1,2,3]triazol-2-yl-phenyl)-methanone]
orexin-1
  IC50: 2910 nM
Human orexin-2 receptor
  IC50: 259 nM

## COc1cc(-c2noc([C@@H]3CCCN3C(=O)c3cc(C)ccc3-n3nccn3)n2)ccn1 [compound 32, {(S)-2-[3-(2-Methoxy-pyridin-4-yl)-[1,2,4]oxadiazol-5-yl]-pyrrolidin-1-yl}-(5-methyl-2-[1,2,3]triazol-2-yl-phenyl)-methanone]
orexin-1
  IC50: 2290 nM
Human orexin-2 receptor
  IC50: 955 nM

## Cc1ccc(-n2nccn2)c(C(=O)N2CCC[C@H]2c2nc(-c3ccccc3OC(F)F)no2)c1 [compound 33, {(S)-2-[3-(2-Difluoromethoxy-phenyl)-[1,2,4]oxadiazol-5-yl]-pyrrolidin-1-yl}-(5-methyl-2-[1,2,3]triazol-2-yl-phenyl)-methanone]
orexin-1
  IC50: 62 nM
Human orexin-2 receptor
  IC50: 9 nM

## Cc1ccc(-n2nccn2)c(C(=O)N2CCC[C@H]2c2nc(-c3c(C)cncc3C)no2)c1 [compound 37, {(S)-2-[3-(3,5-Dimethyl-pyridin-4-yl)-[1,2,4]oxadiazol-5-yl]-pyrrolidin-1-yl}-(5-methyl-2-[1,2,3]triazol-2-yl-phenyl)-methanone]
orexin-1
  IC50: > 5640 nM
Human orexin-2 receptor
  IC50: 1060 nM

## Cc1ccc(-n2nccn2)c(C(=O)N2CCC[C@H]2c2nc(-c3cccc4c3OCCO4)no2)c1 [compound 38, {(S)-2-[3-(2,3-Dihydro-benzo[1,4]dioxin-5-yl)-[1,2,4]oxadiazol-5-yl]-pyrrolidin-1-yl}-(5-methyl-2-[1,2,3]triazol-2-yl-phenyl)-methanone]
orexin-1
  IC50: 23 nM
Human orexin-2 receptor
  IC50: 12 nM

## Cc1ccc(-n2nccn2)c(C(=O)N2CCC[C@H]2c2nc(-c3cccc4[nH]ccc34)no2)c1 [compound 39, {(S)-2-[3-(1H-Indol-4-yl)-[1,2,4]oxadiazol-5-yl]-pyrrolidin-1-yl}-(5-methyl-2-[1,2,3]triazol-2-yl-phenyl)-methanone]
orexin-1
  IC50: 658 nM
Human orexin-2 receptor
  IC50: 92 nM

## CCOc1ccccc1-c1noc([C@@H]2CCCN2C(=O)c2cc(C)ccc2-n2nccn2)n1 [compound 40, {(S)-2-[3-(2-Ethoxy-phenyl)-[1,2,4]oxadiazol-5-yl]-pyrrolidin-1-yl}-(5-methyl-2-[1,2,3]triazol-2-yl-phenyl)-methanone]
orexin-1
  IC50: 22 nM
Human orexin-2 receptor
  IC50: 4 nM

## CCOc1ncccc1-c1noc([C@@H]2CCCN2C(=O)c2cc(C)ccc2-n2nccn2)n1 [compound 41, {(S)-2-[3-(2-Ethoxy-pyridin-3-yl)-[1,2,4]oxadiazol-5-yl]-pyrrolidin-1-yl}-(5-methyl-2-[1,2,3]triazol-2-yl-phenyl)-methanone]
orexin-1
  IC50: 22 nM
Human orexin-2 receptor
  IC50: 7 nM

## COc1ccc2[nH]cc(-c3noc([C@@H]4CCCN4C(=O)c4cc(C)ccc4-n4nccn4)n3)c2c1 [compound 42, {(S)-2-[3-(5-Methoxy-1H-indol-3-yl)-[1,2,4]oxadiazol-5-yl]-pyrrolidin-1-yl}-(5-methyl-2-[1,2,3]triazol-2-yl-phenyl)-methanone]
orexin-1
  IC50: 112 nM
Human orexin-2 receptor
  IC50: 108 nM

## Cc1ccc(-n2nccn2)c(C(=O)N2CCC[C@H]2c2nc(-c3cccc(OC(F)F)c3)no2)c1 [compound 43, {(S)-2-[3-(3-Difluoromethoxy-phenyl)-[1,2,4]oxadiazol-5-yl]-pyrrolidin-1-yl}-(5-methyl-2-[1,2,3]triazol-2-yl-phenyl)-methanone]
orexin-1
  IC50: 284 nM
Human orexin-2 receptor
  IC50: 23 nM

## COCc1ccccc1-c1noc([C@@H]2CCCN2C(=O)c2cc(C)ccc2-n2nccn2)n1 [compound 44, {(S)-2-[3-(2-Methoxymethyl-phenyl)-[1,2,4]oxadiazol-5-yl]-pyrrolidin-1-yl}-(5-methyl-2-[1,2,3]triazol-2-yl-phenyl)-methanone]
orexin-1
  IC50: 110 nM
Human orexin-2 receptor
  IC50: 14 nM

## CCCOc1ccccc1-c1noc([C@@H]2CCCN2C(=O)c2cc(C)ccc2-n2nccn2)n1 [compound 45]
orexin-1
  IC50: 112 nM
Human orexin-2 receptor
  IC50: 125 nM

## Cc1ccc(-n2nccn2)c(C(=O)N2CCC[C@H]2c2nc(-c3cccc4cc[nH]c34)no2)c1 [compound 46, {(S)-2-[3-(1H-Indol-7-yl)-[1,2,4]oxadiazol-5-yl]-pyrrolidin-1-yl}-(5-methyl-2-[1,2,3]triazol-2-yl-phenyl)-methanone]
orexin-1
  IC50: 4 nM
Human orexin-2 receptor
  IC50: 9 nM

## COc1cc(OC)cc(-c2noc([C@@H]3CCCN3C(=O)c3cc(C)ccc3-n3nccn3)n2)c1 [compound 47, {(S)-2-[3-(3,5-Dimethoxy-phenyl)-[1,2,4]oxadiazol-5-yl]-pyrrolidin-1-yl}-(5-methyl-2-[1,2,3]triazol-2-yl-phenyl)-methanone]
orexin-1
  IC50: 316 nM
Human orexin-2 receptor
  IC50: 90 nM

## Cc1ccc(-n2nccn2)c(C(=O)N2CCC[C@H]2c2nc(-c3cccnc3OC3CCC3)no2)c1 [compound 48, {(S)-2-[3-(2-Cyclobutoxy-pyridin-3-yl)-[1,2,4]oxadiazol-5-yl]-pyrrolidin-1-yl}-(5-methyl-2-[1,2,3]triazol-2-yl-phenyl)-methanone]
orexin-1
  IC50: 45 nM
Human orexin-2 receptor
  IC50: 58 nM

## Cc1ccc(-n2nccn2)c(C(=O)N2CCC[C@H]2c2nc(-c3cccnc3OC3CCCC3)no2)c1 [compound 49, {(S)-2-[3-(2-Cyclopentyloxy-pyridin-3-yl)-[1,2,4]oxadiazol-5-yl]-pyrrolidin-1-yl}-(5-methyl-2-[1,2,3]triazol-2-yl-phenyl)-methanone]
orexin-1
  IC50: 89 nM
Human orexin-2 receptor
  IC50: 233 nM

## Cc1ccc(-n2nccn2)c(C(=O)N2CCC[C@H]2c2nc(-c3c[nH]c4ncccc34)no2)c1 [compound 50, (5-Methyl-2-[1,2,3]triazol-2-yl-phenyl)-{(S)-2-[3-(1H-pyrrolo[2,3-b]pyridin-3-yl)-[1,2,4]oxadiazol-5-yl]-pyrrolidin-1-yl}-methanone]
orexin-1
  IC50: 131 nM
Human orexin-2 receptor
  IC50: 75 nM

## Cc1ccc(-n2nccn2)c(C(=O)N2CCC[C@H]2c2nc(-c3cn(C)c4ncccc34)no2)c1 [compound 51, {(S)-2-[3-(1-Methyl-1H-pyrrolo[2,3-b]pyridin-3-yl)-[1,2,4]oxadiazol-5-yl]-pyrrolidin-1-yl}-(5-methyl-2-[1,2,3]triazol-2-yl-phenyl)-methanone]
orexin-1
  IC50: 15 nM
Human orexin-2 receptor
  IC50: 11 nM

## Cc1ccc(-n2nccn2)c(C(=O)N2CCC[C@H]2c2nc(-c3cccc4c3OCO4)no2)c1 [compound 52, [(S)-2-(3-Benzo[1,3]dioxol-4-yl-[1,2,4]oxadiazol-5-yl)-pyrrolidin-1-yl]-(5-methyl-2-[1,2,3]triazol-2-yl-phenyl)-methanone]
orexin-1
  IC50: 182 nM
Human orexin-2 receptor
  IC50: 25 nM

## CCc1ncccc1-c1noc([C@@H]2CCCN2C(=O)c2cc(C)ccc2-n2nccn2)n1 [compound 53, {(S)-2-[3-(2-Ethyl-pyridin-3-yl)-[1,2,4]oxadiazol-5-yl]-pyrrolidin-1-yl}-(5-methyl-2-[1,2,3]triazol-2-yl-phenyl)-methanone]
orexin-1
  IC50: 315 nM
Human orexin-2 receptor
  IC50: 97 nM

## Cc1ccc(-n2nccn2)c(C(=O)N2CCC[C@H]2c2nc(-c3cccc(C(F)(F)F)c3C)no2)c1 [compound 54, (5-Methyl-2-[1,2,3]triazol-2-yl-phenyl)-{(S)-2-[3-(2-methyl-3-trifluoromethyl-phenyl)-[1,2,4]oxadiazol-5-yl]-pyrrolidin-1-yl}-methanone]
orexin-1
  IC50: 216 nM
Human orexin-2 receptor
  IC50: 46 nM

## CCOc1cnccc1-c1noc([C@@H]2CCCN2C(=O)c2cc(C)ccc2-n2nccn2)n1 [compound 55, {(S)-2-[3-(3-Ethoxy-pyridin-4-yl)-[1,2,4]oxadiazol-5-yl]-pyrrolidin-1-yl}-(5-methyl-2-[1,2,3]triazol-2-yl-phenyl)-methanone]
orexin-1
  IC50: 241 nM
Human orexin-2 receptor
  IC50: 41 nM

## CCOc1c(F)cccc1-c1noc([C@@H]2CCCN2C(=O)c2cc(C)ccc2-n2nccn2)n1 [compound 56, {(S)-2-[3-(2-Ethoxy-3-fluoro-phenyl)-[1,2,4]oxadiazol-5-yl]-pyrrolidin-1-yl}-(5-methyl-2-[1,2,3]triazol-2-yl-phenyl)-methanone]
orexin-1
  IC50: 16 nM
Human orexin-2 receptor
  IC50: 7 nM

## Cc1ccc(-n2nccn2)c(C(=O)N2CCC[C@H]2c2nc(-c3cn(C)c4ccccc34)no2)c1 [compound 57, {(S)-2-[3-(1-Methyl-1H-indol-3-yl)-[1,2,4]oxadiazol-5-yl]-pyrrolidin-1-yl}-(5-methyl-2-[1,2,3]triazol-2-yl-phenyl)-methanone]
orexin-1
  IC50: 7 nM
Human orexin-2 receptor
  IC50: 4 nM

## Cc1ccc(-n2nccn2)c(C(=O)N2CCC[C@H]2c2nc(-c3cnccc3C)no2)c1 [compound 58, {(S)-2-[3-(4-Methyl-pyridin-3-yl)-[1,2,4]oxadiazol-5-yl]-pyrrolidin-1-yl}-(5-methyl-2-[1,2,3]triazol-2-yl-phenyl)-methanone]
orexin-1
  IC50: > 5040 nM
Human orexin-2 receptor
  IC50: 536 nM

## COc1cccc(-c2noc([C@@H]3CCCN3C(=O)c3cc(C)ccc3-n3nccn3)n2)c1OC [compound 59, {(S)-2-[3-(2,3-Dimethoxy-phenyl)-[1,2,4]oxadiazol-5-yl]-pyrrolidin-1-yl}-(5-methyl-2-[1,2,3]triazol-2-yl-phenyl)-methanone]
orexin-1
  IC50: 1220 nM
Human orexin-2 receptor
  IC50: 47 nM

## Cc1ccc(-n2nccn2)c(C(=O)N2CCC[C@H]2c2nc(-c3cnn(C)c3)no2)c1 [compound 60, {(S)-2-[3-(1-Methyl-1H-pyrazol-4-yl)-[1,2,4]oxadiazol-5-yl]-pyrrolidin-1-yl}-(5-methyl-2-[1,2,3]triazol-2-yl-phenyl)-methanone]
orexin-1
  IC50: > 1420 nM
Human orexin-2 receptor
  IC50: 419 nM

## CCc1cnc(-c2noc([C@@H]3CCCN3C(=O)c3cc(C)ccc3-n3nccn3)n2)cc1C [compound 61, {(S)-2-[3-(5-Ethyl-4-methyl-pyridin-2-yl)-[1,2,4]oxadiazol-5-yl]-pyrrolidin-1-yl}-(5-methyl-2-[1,2,3]triazol-2-yl-phenyl)-methanone]
orexin-1
  IC50: 1480 nM
Human orexin-2 receptor
  IC50: 271 nM
